Experimental data reported in patent US20070197523A1, “CALCIUM CHANNEL ANTAGONISTS” (ICAGEN, INC., priority 2005, published 2007).

test system: T-type calcium channels; assay: T-type calcium channel inhibitory activity (fluorometric FLIPR Fluo-4 and whole cell patch clamp); format: cell-based, mammalian; conditions: inhibition of T-type calcium channels; cells natively expressing or HEK-293 cells expressing recombinant channels
Procedure: T-type calcium channel inhibitory activity of some compounds of the invention was evaluated using both fluorometric as well as electrophysiological measurement methodologies, which are known to those skilled in the art. Fluorescence measurement of changes in intracellular calcium due to entry of calcium through T-type calcium channels was assessed using calcium sensitive fluorescent dyes Fluo-4 and Fluo-3. In brief, cells natively expressing T-type channels or HEK-293 cells transiently or stably expressing recombinant mammalian T-type calcium channels grown in 96-well tissue culture plates in DMEM/High glucose, Hyclone, Fetal Bovine Serum (10%), and 2 mM sodium pyruvate 2 mM (and for cells lines recombinantly expressing T-type calcium channels, G418 @ 400 mg/liter) were loaded with 4 μM Fluo-4 made up in Earls Balanced Salt Solution (EBSS). After incubation for 30 minutes at room temperature, cells were washed with low calcium (0.5 mM) EBSS to remove extracellular Fluo-4. Baseline fluorescence was measured in a FLIPR (FLuorescence Image Plate Reader) (Molecular Devices Inc) after applying test compounds at desired concentration for 5-10 minutes. The effect of test compound on calcium entry was assessed by monitoring changes in Fluo-4 fluorescence following an elevation of extracellular calcium concentration from 0.5 mM to 5 mM. […] Native cells natively expressing T-type channels or HEK-293 cells transiently or stably expressing recombinant mammalian T-type calcium channels were grown in DMEM/High glucose, Hyclone, Fetal Bovine Serum (10%), 2 mM sodium pyruvate 2 mM (and for cells lines recombinantly expressing T-type calcium channels, G418 @ 400 mg/liter) on glass coverslips in 35 mm tissue culture dishes. Experiments were performed by placing T-type calcium channels expressing cells in a recording chamber perfused with EBSS (which contains (in mM): 132 NaCl, 5.4 KCl, 1.8 CaCl2, 0.8 MgCl2, 10 Hepes, 5 glucose, pH 7.4 with NaOH) on the stage of an inverted microscope. Electrical currents were measured using the whole cell configuration of the patch clamp technique (Axopatch 200B, Axon Instruments (Molecular Devices) (see Hamill et al (1981) Pflugers Arch. 1981 391:85-100) using 2-2.5 MOhm resistance glass pipettes filled with 135 CsF, 5 CsCl, 5 NaCl, 5 EGTA, 10 HEPES, pH 7.3 with CsOH, Osmolarity ˜288 mOsm. Test compound effects were typically assessed under conditions in which approximately half of the available channels were inactivated either by an 8 second conditioning depolarization from a holding potential of −100 mV to a potential ranging from −70 mV to −60 mV or by continually holding the membrane potential at −70 mV. Test compounds were assessed for their ability to reduce the amplitude of the inward T-type calcium current elicited by a 100 ms step depolarization −20 or −30 mV.

IC50 | SMILES
0.001 to 1 µM | CCOc1cccc(S(=O)(=O)c2cnc(Nc3cc(C#CCN(C)C(=O)OC(C)(C)C)nc(C)n3)s2)c1 [Example 30, (3-{6-[5-(3-Ethoxy-benzenesulfonyl)-thiazol-2ylamino]-2-methyl-pyrimidin-4-yl}-prop-2-ynyl)-methyl-carbamic acid tert-butyl ester]
1 to 10 µM | CCOc1cccc(S(=O)(=O)c2cnc(Nc3cc(NCCOC)ncn3)s2)c1 [Example 4, N-[5-(3-Ethoxy-benzenesulfonyl)-thiazol-2-yl]-N′-(2-methoxy-ethyl)-pyrimidine-4,6-diamine]

Second part, the compound before the results:

SMILES | IC50
CCOc1cccc(S(=O)(=O)c2cnc(Nc3cc(NCC[C@H]4CCNC4)nc(C)n3)s2)c1 [Example 10, N-[5-(3-ethoxy-benzenesulfonyl)-thiazol-2-yl]-2-methyl-N′-(R)-(pyrrolidin-3-yl-ethyl)-pyrimidine-4,6-diamine] | 0.001 to 1 µM
CCOc1cccc(S(=O)(=O)c2cnc(Nc3cc(NCC4(N)CCCCC4)nc(C)n3)s2)c1 [Example 11, N-(1-Amino-cyclohexylmethyl)-N′-[5-(3-ethoxy-benzenesulfonyl)-thiazol-2-yl]-2-methyl-pyrimidine-4,6-diamine] | 0.001 to 1 µM
CCOc1cccc(S(=O)(=O)c2cnc(Nc3cc(NCCN4CCCC4)ncn3)s2)c1 [Example 2, N-(2-Pyrrolidin-1-ethyl)-N′-[5-(3-ethoxy-benzenesulfonyl)-thiazol-2-yl]-pyrimidine-4,6-diamine] | 0.001 to 1 µM
